“Also recorded” adds a separate entry of the source.
Legend:
α-SMA = experiment: Western blot: degradation of TGF-β-induced α-SMA protein in A549 cells; format: cell-based, Human; details: 24-hour treatment, FIG. 43
Procedure: (§1) Human lung carcinoma cells (A549 cell line) were purchased from Shanghai Cell Bank of Chinese Academy of Sciences.
(§2) The cells were cultured in RPMI (Roswell Park Memorial Institute)-1640 medium supplemented with 10% FBS (Fetal Bovine Serum) and 1% penicillin-streptomycin. The cell culture conditions were 5% CO2 and […] Upon reaching approximately 80% confluence, the cells were subcultured at a 1:3 ratio.
(§3) A549 cells in the exponential growth phase were digested and plated into 6-well plates at 1×10^6 cells per well. After one day of growth, TGF-β (transforming growth factor-β) and different concentrations of compound B-1-1 were added to culture the cells. Protein was extracted 24 hours after drug treatment.
(§4) After removing the culture medium from the 6-well plates, the cells were washed once with PBS (phosphate-buffered saline) and then trypsinized. The cells were collected in 1.5 mL microcentrifuge tubes by centrifugation. […]
(§5) The protein concentration was determined using a BCA Protein Assay Kit. […] After thoroughly mixing, the plate was incubated at 60° C. for 10 min, and the absorbance was measured at 562 nm. Record the readings and plot a standard curve based on the standard concentration gradient. The protein concentration of the samples was calculated by substituting the sample absorbance values into the standard curve. […]

[1] = Body weight and clinical observations during the rat pulmonary fibrosis study; format: in vivo, SD rats; details: Group 5, 40 mg/kg, after administration, FIGS. 44 and 45
Source text: (§6) 55 SD rats were purchased from Zhejiang Charles River Laboratory Animal Technology Co., Ltd. and housed in the SPF-grade barrier system of KCl Biotechnology (Suzhou) Co., Ltd. The animal use certification number was SYXK (Su) 2017-0041, the temperature, humidity and light control system follows international standards.
After the rats were under surgical anesthesia, the experimental model was constructed according to the guidelines for establishing the unilateral pulmonary fibrosis model in KCl. The skin was shaved, locally disinfected, and then a layered incision was made to expose and preserve the trachea. Bleomycin (dose: 3 mg/kg) was administered via intratracheal instillation to induce left lung fibrosis. After confirming no bleeding, the incision was closed layer-by-layer using 2-0 silk surgical sutures. After the surgery, the animals were placed on a 37° C. electric heating pad until fully recovered. Normal feeding and drinking were confirmed before returning the animals to standard housing. Starting from the day of modeling, meloxicam (1 mg/kg) was administered subcutaneously once daily for three consecutive days for postoperative analgesia. […]

GLi1 = experiment: Western blot: degradation of TGF-β-induced GLi1 protein in A549 cells; format: cell-based, Human; details: 24-hour treatment, FIG. 43
Procedure: as §1, §2, §3, §4, §5

[2] = tested on: Bleomycin-induced unilateral pulmonary fibrosis model in SD rats; experiment: Bleomycin-induced unilateral pulmonary fibrosis model, Masson Trichrome staining, Ashcroft fibrosis score of left lung; format: in vivo; details: for Fibrosis Score (Ashcroft), left lung: p.o., 28 days from Day 8, model group 3.79 ± 0.08, p < 0.001 vs. Model group
Source text: as §6
(§7) Anesthesia: 1-2.5% isoflurane was used for respiratory anesthesia to maintain deep anesthesia of the animals.
(§8) After the rats were under surgical anesthesia, the experimental model was constructed according to the guidelines for establishing the unilateral pulmonary fibrosis model in KCl. The skin was shaved, locally disinfected, and then a layered incision was made to expose and preserve the trachea. Bleomycin (dose: 3 mg/kg) was administered via intratracheal instillation to induce left lung fibrosis. After confirming no bleeding, the incision was closed layer-by-layer using 2-0 silk surgical sutures. After the surgery, the animals were placed on a 37° C. electric heating pad until fully recovered. Normal feeding and drinking were confirmed before returning the animals to standard housing. Starting from the day of modeling, meloxicam (1 mg/kg) was administered subcutaneously once daily for three consecutive days for postoperative analgesia.
(§9) Prior to modeling, animals were randomly divided into five groups based on body weight, as follows: Sham model group (normal group) (n=10), model group (n=10), Nintedanib 100 mg/kg, qd group (n=10), Compound B-1-1 20 mg/kg, bid group (n=10), Compound B-1-1 40 mg/kg, bid group (n=10). The administration began on the 8th day after modeling. • Nintedanib: administered orally, once daily for 28 consecutive days; • Compound B-1-1: administered orally, twice daily for 28 consecutive days.
(§10) After euthanasia, animals were perfused systemically with pre-cooled PBS at 4° C. The lungs were collected, and the left lung lobes were perfused with formalin. Histopathological examinations were performed using HE staining and Masson Trichrome staining. HE staining was used to evaluate the extent of bronchial and small pulmonary artery injury and inflammation, while Masson Trichrome staining assessed the degree of pulmonary fibrosis.
(§11) The entire left lung was dehydrated and embedded in paraffin. Paraffin sections of the entire left lung were prepared at a thickness of 3 μm. HE-stained sections were used for pathological analysis and scoring of injury and inflammatory changes in terminal bronchioles and accompanying small pulmonary arteries within and surrounding the lesion (Tables 4-2 and 4-3). Masson Trichrome staining was performed on the left lung paraffin sections, and the stained sections were scanned using the Nano Zoomer Digital Pathology scanner (S210) to obtain whole-slide images. Ten areas of 1 mm^2 each were randomly selected within the lesion area, and semi-quantitative scoring was conducted under a double-blind condition according to the Ashcroft scoring system (Table 4-4).
(§12) Statistical analysis was performed using Prism 6.0 software. Data are expressed as mean±SEM (standard error). One-way ANOVA was used for the analysis, and Tukey's method was selected for the comparison of differences between groups; when comparing between two groups, a T-test was used for two-tailed detection; when p<0.05, there was a significant difference between the two groups. In cases where outliers were suspected due to large within-group variability, the Identify Outliers function in GraphPad Prism 6.0 was used to detect and exclude outlier values. For data analysis purposes, all relevant data from any animal excluded from the efficacy evaluation were also omitted from statistical analysis.

[3] = tested on: Bleomycin-induced unilateral pulmonary fibrosis model in SD rats; experiment: Bleomycin-induced unilateral pulmonary fibrosis model, HE staining injury and inflammation score of terminal bronchioles and small pulmonary arteries; format: in vivo; details: for Injury Score of Terminal Bronchioles and Accompanying Small Pulmonary Arteries, At Margin Lesion / Injury Score of Terminal Bronchioles and Accompanying Small Pulmonary Arteries, Within Lesion: p.o., 28 days from Day 8, Mean ± SEM, p < 0.001 vs. Model group; for Injury Score of Terminal Bronchioles and Accompanying Small Pulmonary Arteries, At Margin Lesion: model group 5.44 ± 0.12; for Injury Score of Terminal Bronchioles and Accompanying Small Pulmonary Arteries, Within Lesion: model group 9.44 ± 0.22
Source text: as §6, §7, §8, §9, §10, §11, §12

GLi2 = experiment: Western blot: degradation of TGF-β-induced GLi2 protein in A549 cells; format: cell-based, Human; details: 24-hour treatment, FIG. 43
Procedure: as §1, §2, §3, §4, §5

[4] = both doses, 20 mg/kg and 40 mg/kg, twice daily from Day 8, p<0.001
[5] = 100 mg/kg, once daily from Day 8, p<0.001

Row | Structure (SMILES) | degradation of TGF-β-induced α-SMA protein (Western blot) (α-SMA) | body weight gain compared with the model group [1] | degradation of TGF-β-induced GLi1 protein (Western blot) (GLi1) | Fibrosis Score (Ashcroft), left lung ([2]; 20 mg/kg, b.i.d.) | effect in inhibiting the progression of pulmonary fibrosis lesions compared with positive drug nintedanib ([2]; 40 mg/kg, BID, versus nintedanib 100 mg/kg, QD) | Fibrosis Score (Ashcroft), left lung ([2]; 40 mg/kg, b.i.d.) | pulmonary fibrosis scores / progression compared to the model group (in words) [2, 4] | Injury Score of Terminal Bronchioles and Accompanying Small Pulmonary Arteries, At Margin Lesion ([3]; 20 mg/kg, b.i.d.) | Injury Score of Terminal Bronchioles and Accompanying Small Pulmonary Arteries, Within Lesion ([3]; 20 mg/kg, b.i.d.) | Injury Score of Terminal Bronchioles and Accompanying Small Pulmonary Arteries, At Margin Lesion ([3]; 40 mg/kg, b.i.d.) | Injury Score of Terminal Bronchioles and Accompanying Small Pulmonary Arteries, Within Lesion ([3]; 40 mg/kg, b.i.d.) | inflammatory infiltration and pathological injury in terminal bronchioles and small pulmonary arteries within and at the margins of fibrotic lesions, compared to model group (in words) [3, 4] | degradation of TGF-β-induced GLi2 protein (Western blot) (GLi2) | pulmonary fibrosis compared to the model group (in words) [2, 5] | Fibrosis Score (Ashcroft), left lung ([2]; 100 mg/kg, q.d.) | inflammatory cell infiltration and injury in terminal bronchioles and small pulmonary arteries within and surrounding fibrotic lesions, compared to model group (in words) [3, 5] | Injury Score of Terminal Bronchioles and Accompanying Small Pulmonary Arteries, At Margin Lesion ([3]; 100 mg/kg, q.d.) | Injury Score of Terminal Bronchioles and Accompanying Small Pulmonary Arteries, Within Lesion ([3]; 100 mg/kg, q.d.)
1 | Cc1cnc(-c2cc(N3CCc4nc(N5CCC(O)CC5)ncc4[C@H]3C)ncc2Cl)c(C)c1 [Compound B-1-1] | effectively degraded | slower rate of weight gain | effectively degraded | 2.93 ± 0.20 | same excellent effect | 2.62 ± 0.18 | significantly reduced; also recorded: significantly inhibit | 3.50 ± 0.43 | 6.96 ± 0.46 | 3.14 ± 0.35 | 6.20 ± 0.47 | significantly decreased; also recorded: significantly improved | effectively degraded |  |  |  |  | 
2 | COC(=O)c1ccc2c(c1)NC(=O)/C2=C(\Nc1ccc(N(C)C(=O)CN2CCN(C)CC2)cc1)c1ccccc1 [Nintedanib, nintedanib, reference compound] |  |  |  |  |  |  |  |  |  |  |  |  |  | significantly ameliorated; also recorded: significantly improved | 2.57 ± 0.09 | significantly reduced; also recorded: amelioration | 2.72 ± 0.17 | 6.24 ± 0.21
